# Values quoted from earlier work as cited in PMC10928227, “Assessing biologic/toxicologic effects of extractables from plastic contact materials for advanced therapy manufacturing using cell painting assay and cytotoxicity screening” (Scientific Reports, 2024).
# Read-outs that look alike come from different tables or passages of the source.
# Conditions: cited from earlier work; for Risk based on in vitro genotoxicity data from database (from QSAR-toolbox): not checked for in vivo relevance, ref QSAR Toolbox 4.5 database
smiles,measurement,setting,value
Oc1ccccc1 [Phenol],Measured and predicted data (remark on genetic toxicity),"heading line of the measured and predicted data section, ref QSAR Toolbox database",suspected of causing genetic defects
same,Risk based on in vitro genotoxicity data from database (from QSAR-toolbox),,Positive in vitro data
Sc1nc2ccccc2s1 [2-Mercaptobenzothiazole],Risk based on in vitro genotoxicity data from database (from QSAR-toolbox),,Positive in vitro data
Nc1ccccc1 [Aniline],Risk based on in vitro genotoxicity data from database (from QSAR-toolbox),,Positive in vitro data
CC(=O)c1ccccc1 [Acetophenone],Risk based on in vitro genotoxicity data from database (from QSAR-toolbox),,Positive in vitro data
CC(C)(c1ccc(O)cc1)c1ccc(O)cc1 [Bisphenol A],Risk based on in vitro genotoxicity data from database (from QSAR-toolbox),,Positive in vitro data
O=C1CCCCCN1 [Caprolactam],Risk based on in vitro genotoxicity data from database (from QSAR-toolbox),,Positive in vitro data
Cc1ccc(S(N)(=O)=O)cc1 [70-55-3],"Gene mutation, Bacterial Reverse Mutation Assay (e.g. Ames Test)","Salmonella typhimurium, No Strain Information, in Vitro, Database: Genotoxicity OASIS, ref NIHS Japan",Negative
same,"Gene mutation, Bacterial Reverse Mutation Assay (e.g. Ames Test)","Salmonella typhimurium, Strain TA 98, in Vitro, Database: Genotoxicity OASIS, ref https://doi.org/10.22427/NTP-DATA-022-00002-0001-000-7, National Institute of Environmental Health Sciences",Negative
same,"Gene mutation, Bacterial Reverse Mutation Assay (e.g. Ames Test)","Salmonella typhimurium, Strain TA 100, in Vitro, Database: Genotoxicity OASIS, ref https://doi.org/10.22427/NTP-DATA-022-00002-0001-000-7, National Institute of Environmental Health Sciences",Negative
same,"Gene mutation, Bacterial Reverse Mutation Assay (e.g. Ames Test)","Salmonella typhimurium, Strain TA 102, in Vitro, Database: Genotoxicity OASIS, ref https://doi.org/10.22427/NTP-DATA-022-00002-0001-000-7, National Institute of Environmental Health Sciences",Negative
same,"Gene mutation, Bacterial Reverse Mutation Assay (e.g. Ames Test)","Salmonella typhimurium, Strain TA 1535, in Vitro, OECD Guideline 471, Database: Genotoxicity OASIS, ref Japan Existing Chemical Data Base",Negative
same,"Chromosome aberration, in Vitro Mammalian Chromosome Aberration Test","in Vitro, Chinese hamster, Chinese Hamster Lung Cells, Guidelines For Screening Mutagenicity Testing of Chemicals (Chemical Substances Control Law of Japan), Database Toxicity Japan MHLW, ref Japan Ministry of Health Labour and Welfare, http://dra4.nihs.go.jp/mhlw_data/jsp/SearchPageENG.jsp",Negative
same,"Gene mutation, Bacterial Reverse Mutation Assay (e.g. Ames Test)","in Vitro, E. coli WP2 uvrA, Database Genotoxicity OASIS, ref ECHA, Registration dossier",Negative
same,"Gene mutation, Bacterial Reverse Mutation Assay (e.g. Ames Test)","in Vitro, Escherichia coli, Strain WP2 UvrA, Guidelines For Screening Mutagenicity Testing of Chemicals (Chemical Substances Control Law of Japan), Database Toxicity Japan MHLW, ref Japan Existing Chemical Data Base, http://dra4.nihs.go.jp/mhlw_data/jsp/SearchPageENG.jsp",Negative
same,"Chromosome aberration, in Vitro Mammalian Chromosome Aberration Test","in Vitro, No Strain Information, Database Genotoxicity OASIS, ref NIHS Japan",Negative
same,"Gene mutation, Bacterial Reverse Mutation Assay (e.g. Ames Test)","in Vitro, Salmonella typhimurium, Strain TA 97, Guidelines For Screening Mutagenicity Testing of Chemicals (Chemical Substances Control Law of Japan), Database Toxicity Japan MHLW, ref Japan Existing Chemical Data Base, http://dra4.nihs.go.jp/mhlw_data/jsp/SearchPageENG.jsp",Negative
same,"Gene mutation, Bacterial Reverse Mutation Assay (e.g. Ames Test)","in Vitro, Salmonella typhimurium, Strain TA 100, Guidelines For Screening Mutagenicity Testing of Chemicals (Chemical Substances Control Law of Japan), Database Toxicity Japan MHLW, ref Japan Existing Chemical Data Base, http://dra4.nihs.go.jp/mhlw_data/jsp/SearchPageENG.jsp",Negative
same,"Gene mutation, Bacterial Reverse Mutation Assay (e.g. Ames Test)","in Vitro, Salmonella typhimurium, Strain TA 1535, Guidelines For Screening Mutagenicity Testing of Chemicals (Chemical Substances Control Law of Japan), Database Toxicity Japan MHLW, ref Japan Existing Chemical Data Base, http://dra4.nihs.go.jp/mhlw_data/jsp/SearchPageENG.jsp",Negative
same,"Gene mutation, Bacterial Reverse Mutation Assay (e.g. Ames Test)","in Vitro, Salmonella typhimurium, Strain TA 1535, OECD Guideline 471, Database Genotoxicity OASIS, ref Japan Existing Chemical Data Base",Negative
same,"Gene mutation, Bacterial Reverse Mutation Assay (e.g. Ames Test)","in Vitro, Salmonella typhimurium, Strain TA 1537, Guidelines For Screening Mutagenicity Testing of Chemicals (Chemical Substances Control Law of Japan), Database Toxicity Japan MHLW, ref Japan Existing Chemical Data Base, http://dra4.nihs.go.jp/mhlw_data/jsp/SearchPageENG.jsp",Negative
same,"Gene mutation, Bacterial Reverse Mutation Assay (e.g. Ames Test)","in Vitro, Salmonella typhimurium, Strain TA 1537, OECD Guideline 471, Database Genotoxicity OASIS, ref Japan Existing Chemical Data Base",Negative
CCCCCCCCCc1ccc(O)cc1 [104-40-5],"Gene mutation, Bacterial Reverse Mutation Assay (e.g. Ames Test)","Salmonella typhimurium, Strain TA 100, in Vitro, Database: Bacterial mutagenicity ISSSTY, ref CCRIS database,Toxnet databases (Romualdo Benigni)",Negative
same,"Gene mutation, Bacterial Reverse Mutation Assay (e.g. Ames Test)","Salmonella typhimurium, Strain TA 102, in Vitro, Database: Bacterial mutagenicity ISSSTY, ref CCRIS database,Toxnet databases (Romualdo Benigni)",Negative
same,"Gene mutation, Bacterial Reverse Mutation Assay (e.g. Ames Test)","in Vitro, Salmonella typhimurium, No Strain Information, Database Genotoxicity OASIS, ref Journal of Medicinal Chemistry 48 (1), pp. 312-32, 25, Kazius J, McGuire R., Bursi R",Negative
same,"Gene mutation, Bacterial Reverse Mutation Assay (e.g. Ames Test)","in Vitro, Salmonella typhimurium, Strain TA 97, Database Bacterial mutagenicity ISSSTY, ref CCRIS database,Toxnet databases, Romualdo Benigni, 02.5.2011",Negative
same,"Gene mutation, Bacterial Reverse Mutation Assay (e.g. Ames Test)","in Vitro, Salmonella typhimurium, Strain TA 98, Database Bacterial mutagenicity ISSSTY, ref CCRIS database,Toxnet databases, Romualdo Benigni, 02.5.2011",Negative
same,"Gene mutation, Bacterial Reverse Mutation Assay (e.g. Ames Test)","in Vitro, Salmonella typhimurium, Strain TA 100, Database Bacterial mutagenicity ISSSTY, ref CCRIS database,Toxnet databases, Romualdo Benigni, 02.5.2011",Negative
same,"Gene mutation, Bacterial Reverse Mutation Assay (e.g. Ames Test)","in Vitro, Salmonella typhimurium, Strain TA 102, Database Bacterial mutagenicity ISSSTY, ref CCRIS database,Toxnet databases, Romualdo Benigni, 02.5.2011",Negative
same,"Gene mutation, Bacterial Reverse Mutation Assay (e.g. Ames Test)","in Vitro, Salmonella typhimurium, Strain TA 104, Database Bacterial mutagenicity ISSSTY, ref CCRIS database,Toxnet databases, Romualdo Benigni, 02.5.2011",Negative
same,"Gene mutation, Bacterial Reverse Mutation Assay (e.g. Ames Test)","in Vitro, Salmonella typhimurium, Strain TA 1535, Database Bacterial mutagenicity ISSSTY, ref CCRIS database,Toxnet databases, Romualdo Benigni, 02.5.2011",Negative
same,"Gene mutation, Bacterial Reverse Mutation Assay (e.g. Ames Test)","in Vitro, Salmonella typhimurium, Strain TA 1537, Database Bacterial mutagenicity ISSSTY, ref CCRIS database,Toxnet databases, Romualdo Benigni, 02.5.2011",Negative
same,"Gene mutation, Bacterial Reverse Mutation Assay (e.g. Ames Test)","in Vitro, Salmonella typhimurium, Strain TA 1538, Database Bacterial mutagenicity ISSSTY, ref CCRIS database,Toxnet databases, Romualdo Benigni, 02.5.2011",Negative
OCC(O)CO [56-81-5],"Chromosome aberration, in Vitro Mammalian Chromosome Aberration Test","in Vitro, Chinese hamster, Chinese Hamster Lung (CHL), Database Genotoxicity OASIS, ref ECHA, Registration dossier",Negative
same,"Chromosome aberration, in Vitro Mammalian Chromosome Aberration Test","in Vitro, Chinese hamster, Chinese Hamster Lung (CHL), Duration 24÷48 h, Database Genotoxicity OASIS, ref Sofuni, T., Ed. (1998). Data Book of Chromosomal Aberration Test In Vitro, Revised Edition",Negative
S=c1[nH]c2ccccc2s1 [149-30-4],"Chromosome aberration, in Vitro Mammalian Chromosome Aberration Test","in Vitro, No Strain Information, Database Genotoxicity OASIS, ref Mutation Research 584 (2005) 1-256, Kirkland et al.",Positive
same,"Gene mutation, Mammalian Cell Gene Mutation Assay","in Vitro, T-lymphoma Cell Lines, Database Genotoxicity OASIS, ref Mutation Research 584 (2005) 1-256, Kirkland et al.",Positive
Cc1cc(C(C)(C)C)c(O)c(C(C)(C)C)c1 [Butylated hydroxytoluene],Risk based on in vitro genotoxicity data from database (from QSAR-toolbox),,Positive in vitro data
